In US6893830B1, “Method of screening oxysterol activation of LXRα” (The Board of Regents of the University of Texas System, priority 1996, dated 2005):

What was measured:
LXRα = biological target: T1, LXRα (Homo sapiens, UniProt Q13133); test: LXRα cotransfection assay with TK-LXREx3-LUC reporter in CV-1 cells; assay type: cell-based; parameters: expressed in transfected cells; host or cells: CV-1 monkey kidney cells
T1 sequence (Q13133 1-447): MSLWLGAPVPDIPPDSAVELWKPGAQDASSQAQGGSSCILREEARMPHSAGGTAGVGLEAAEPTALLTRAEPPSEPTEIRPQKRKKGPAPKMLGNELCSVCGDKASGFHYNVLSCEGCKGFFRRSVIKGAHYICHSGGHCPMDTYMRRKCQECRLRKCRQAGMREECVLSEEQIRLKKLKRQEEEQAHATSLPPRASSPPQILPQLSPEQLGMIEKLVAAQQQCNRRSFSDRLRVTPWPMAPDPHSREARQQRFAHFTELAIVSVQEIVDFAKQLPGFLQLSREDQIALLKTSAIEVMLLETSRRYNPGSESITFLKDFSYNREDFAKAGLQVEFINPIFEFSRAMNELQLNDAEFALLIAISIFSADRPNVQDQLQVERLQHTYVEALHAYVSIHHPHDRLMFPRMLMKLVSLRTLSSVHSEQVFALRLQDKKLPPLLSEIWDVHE
T1 sequence (P19793 1-462 partner): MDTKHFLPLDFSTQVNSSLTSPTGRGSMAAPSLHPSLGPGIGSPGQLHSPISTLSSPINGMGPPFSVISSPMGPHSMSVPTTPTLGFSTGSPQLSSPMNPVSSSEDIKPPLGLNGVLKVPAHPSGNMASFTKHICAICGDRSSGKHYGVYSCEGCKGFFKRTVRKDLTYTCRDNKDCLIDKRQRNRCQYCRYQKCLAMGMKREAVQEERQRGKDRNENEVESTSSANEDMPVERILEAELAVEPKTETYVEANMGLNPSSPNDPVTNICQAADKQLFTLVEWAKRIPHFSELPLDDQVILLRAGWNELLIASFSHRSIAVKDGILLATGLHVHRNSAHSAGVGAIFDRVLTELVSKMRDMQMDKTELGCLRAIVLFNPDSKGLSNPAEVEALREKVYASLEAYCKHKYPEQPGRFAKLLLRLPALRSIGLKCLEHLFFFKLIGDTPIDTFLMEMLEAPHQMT
Method: FIG. 1 Human LXRα is activated by gonad sterols. (A) Transactivation of LXRα ligand binding domain (LBD) with testis extract. CV-1 cells were cotransfected with a GAL4 responsive luciferase reporter plasmid and an expression plasmid encoding no receptor or a chimeric receptor composed of the GAL4 DNA binding domain fused to the LXRα ligand binding domain (LBD) (GAL4-LXRα)^3. After transfection, cells were treated with ethanol (ETOH) or 1% of the concentrated testis extract. (B) Transactivation of LXRα with follicular fluid meiosis activating substance (FF-MAS). CV-1 cells were cotransfected with an LXRα responsive reporter plasmid and the receptor expression plasmids for LXRα alone or with RXRα. After transfection, cells were treated with ETOH or […] FF-MAS.
FIG. 2 LXRα is activated by a specific subset of oxysterols. (A) Specificity of LXRα activators. Shown is a representative group from 70 compounds evaluated for LXRα activity (10 μM) in cotransfection assays as described in FIG. 1B. […] (B) The the structure-activity relationship of LXRα activators. Data compiled from FIG. 2A and other experiments (not shown) reveal that the position of the hydroxyl on the cholesterol backbone is a determinant of LXRα activity. […] Dose response curves for LXRα activators were generated in CV-1 cell cotransfection assays as described in FIG. 1B.
Organic extraction of breeding bull testis was performed as described^6. Briefly, 12 grams of lyophilized testis was extracted with N-heptane and lipids were concentrated by roto-evaporation. Aliquots representing 1% of this material were assayed. FF-MAS was synthesized as described^18. Transient transfections in CV-1 monkey kidney cells were performed in triplicate in 48-well plates as described^3 with media containing 5% cabosil-treated calf bovine serum.
Transfections were performed in FIG. 1A using 80 ng of TK-MH100x4-LUC reporter and 30 ng of CMX-GAL4-hLXRα expression plasmids per well; and in FIG. 1B using 50 ng of TK-LXREx3-LUC reporter and 25 ng of CMX-hLXRa alone or with 25 ng CMX-hRXRa expression plasmids per well. Candidate ligands were dissolved in ethanol and added 8 hours post-transfection. As an internal standard, 50 ng of CMX-β gal was included in all transfections. All plasmid constructs and determinations of luciferase and β-galactosidase activities have been described^3. To construct CMX-LXRα, the hLXRα cDNA insert was excised from the plasmid pXR2DRV (Willy, et al., 1995, Genes Dev. 9: 1033-1045) with Kpnl and BamHI and was ligated into the expression vector CMX. CMX-βgal was constructed by ligating the β-galactosidase gene into the expression vector CMX. Chimeric Gal4-receptor expression plasmid (CMX-GAL4-LXRα) was constructed by first ligating the GAL4 portion of pSC424 (Sadowski, I. and M. Ptashne, 1989, Nucleic Acids Res. 19: 7539-7530) into the HindIII/SacI sites of pCMX (Umesono, et al., 1991, Cell 65: 1255-1266) to create pCMX-GAL4. This vector contains the CMV promoter fused to the coding sequence for GAL4 (1-147), followed by inframe polylinker cloning sites and translational stop codons. The cDNAs encoding the ligand-binding domain (LBD) of hLXRα (amino acids 166-447) was then ligated into the polylinker to create CMX-GAL4-LXRα.
Reporter plasmids for these studies were constructed by ligating the appropriate oligonucleotides into the HindIII site of the TK-LUC vector to create TK-LXREx3-LUC, TK-MH100x4-LUC (Kang, T., et al., 1993, J. Biol Chem. 268: 9629-9635). The sense strand of the LXRE oligonucleotide used to construct the reporter plasmid TK-LXREx3-LUC was 5′agctt[…]3′ (SEQ. ID. NO. 1). All constructs were verified by sequencing. Data are presented as relative light units (RLUs) and represent the mean of triplicate assays±standard error. […]

[1] = biological target: T2, TR-LXR chimera (TRβ N-terminus and DNA binding domain fused to ligand binding domain of LXRα) (Homo sapiens, UniProt Q13133); test: Chimeric receptor transactivation in CV-1 cells, TR-LXR chimera; assay type: cell-based; conditions: TK-LXREx3-LUC
T2 construct: expressed in transfected cells; host or cells: CV-1 monkey kidney cells
T2 sequence (Q13133 164-447): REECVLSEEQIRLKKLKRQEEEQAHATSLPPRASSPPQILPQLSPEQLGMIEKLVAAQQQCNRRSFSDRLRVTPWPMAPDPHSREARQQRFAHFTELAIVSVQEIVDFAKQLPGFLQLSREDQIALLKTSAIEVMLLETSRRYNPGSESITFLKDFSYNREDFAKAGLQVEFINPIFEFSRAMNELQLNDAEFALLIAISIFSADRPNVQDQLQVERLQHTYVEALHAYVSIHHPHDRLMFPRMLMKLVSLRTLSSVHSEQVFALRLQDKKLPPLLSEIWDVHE
Method: Cells were treated with ETOH or 6 μM 22(R)-hydroxycholesterol. […] CV-1 cells were cotransfected with TK-LXREx3-LUC reporter plasmid and expression plasmids containing the indicated receptor combinations, and then treated with the indicated ligands. […] CV-1 cells cotransfected with the LXRα expression plasmid and TK-LXREx3-LUC reporter were treated with 9-cis RA, 22(R)-hydroxycholesterol, or both, at the indicated concentrations.

Q: How did the EC50 (LXRα) turn out when CC(C)CC[C@@H](O)[C@@H](C)[C@H]1CC[C@H]2[C@@H]3CC=C4C[C@@H](O)CC[C@]4(C)[C@H]3CC[C@]12C [22(R)-hydroxycholesterol] was run?
A: 1500 nM

Q: What about the “responsiveness of TR-LXR chimera” value [1] of the same compound?
A: responded
